According to paper PMC5863483, “Low HLA binding of diabetes-associated CD8+ T-cell epitopes is increased by post translational modifications” (BMC Immunology, 2018):
Like-named read-outs stand apart in the source and are kept apart here. Blank lines part the entries; values can stand above or below the compound they belong to. Where no end group is shown, it is not given here.

How the values were obtained:
[1] = target: HLA-B*07:02 (Homo sapiens, UniProt P01889); test: HLA-peptide competition binding assay, B*07:02; details: read-out: IC50 nM, target assay B*07:02
[2] = target: HLA-A*24:02 (Homo sapiens, UniProt P04439, D101N/D140Y/D185E/E176V/E190D/F33S/G103R/G107R/I119L/I121M/I306V/K335N/L105A/L180Q/L300P/N151K/N90K/Q86E/Q94H/R106L/R138H/R89G/T104I/T345S/V100E/W191G/Y123F); test: HLA-peptide competition binding assay, A*24:02; details: read-out: IC50 nM, target assay A*24:02
[3] = target: HLA-A*02:01 (Homo sapiens, UniProt P04439, D140Y/D185E/D98H/E176V/E277Q/G131W/G231S/I119V/I121R/I166T/I218V/L300P/L318F/N151K/N90K/P208A/P217A/Q86G/Q94H/R138H/R169H/T345S); test: HLA-peptide competition binding assay, A*02:01
[4] = target: HLA-A*01:01 (Homo sapiens, UniProt P04439, A114D/A174V/A182V/D101N/D185E/E176A/E190D/L180R/Q94H/R68K/S129P/T187R/V100A/V91M/W191G); test: HLA-peptide competition binding assay, A*01:01; details: read-out: IC50 nM, target assay A*01:01
[5] = target: HLA-B*08:01 (Homo sapiens, UniProt P01889, A93T/A95T/D138N/E176V/E187T/K202T/Q94N/R180D/S35A/V36M/Y33D/Y91F); test: biochemical
Experimental: The 138 peptides were tested for their capacity to bind their respective HLA class I restricting allele(s) in classical competition assays based on the inhibition of the binding of high affinity radiolabeled ligands to purified major histocompatibility (MHC) molecules, as described in the Methods. In instances where the precise restriction was not available, binding to the most common representative subtype from the same allele family was assayed (e.g., A*02:01 for A02; B*07:02 for B7; A*03:01 for A03, etc.). For epitopes reported to be restricted by multiple alleles, each restriction is shown separately.
Peptide-MHC affinities were measured using classical competition assays based on the inhibition of binding of a high affinity radiolabeled ligand to purified HLA class I molecules, as previously described. Briefly, 0.1–1 nM of radiolabeled peptide is co-incubated at room temperature with purified MHC in the presence of a cocktail of protease inhibitors. Following a two-day incubation, MHC bound radioactivity is determined by capturing MHC/peptide complexes on W6/32 (anti-HLA class I) mAb coated Lumitrac 600 plates (Greiner Bio-one, Frickenhausen, Germany), and bound cpm measured using the TopCount (Packard Instrument Co., Meriden, CT) microscintillation counter. […] Under the conditions utilized, where [label] < [MHC] and IC50 ≥ [MHC], measured IC50 values are reasonable approximations of true Kd. Each competitor peptide is tested at six different concentrations covering a 100,000-fold range, and in three or more independent experiments. As a positive control, the unlabeled version of the radiolabeled probe is also tested in each experiment.

[6] = target: HLA-A*11:01 (Homo sapiens, UniProt P04439, A114D/D185E/E176A/F33Y/L180Q/S129P/T187R); test: HLA-peptide competition binding assay, A*11:01; details: read-out: IC50 nM, target assay A*11:01
[7] = target: HLA-A*03:01 (Homo sapiens, UniProt P04439); test: HLA-peptide competition binding assay, A*03:01
[8] = target: HLA-B*51:01 (Homo sapiens, UniProt P01889, A329T/A93T/A95T/C349S/D138N/D201E/D98Y/E187L/E204Q/E69T/G107R/I218V/K202T/L105A/L119W/N104I/Q94N/R106L/R155S/R180L/S101N/S121T/S35A/S48A/V306I/V36M/Y195H/Y91F); test: HLA-peptide competition binding assay, B*51:01; details: read-out: IC50 nM, target assay B*51:01
[9] = target: HLA-B*35:01 (Homo sapiens, UniProt P01889, A329T/A93T/A95T/C349S/D201E/D98Y/E176V/E187L/E204Q/E69T/I218V/K202T/L119I/Q94N/R155S/R180L/S121R/S35A/S48A/T118I/V127L/V306I/V36M/Y140S/Y91F); test: HLA-peptide competition binding assay, B*35:01; details: read-out: IC50 nM, target assay B*35:01
[10] = target: HLA-B*18:01 (Homo sapiens, UniProt P01889, A329T/A93T/A95T/C349S/D201E/D54G/D98Y/E176V/E187T/E204Q/E69T/K202T/Q94N/R155S/R180L/S121R/V306I/Y140S/Y195H/Y33H/Y91S); test: HLA-peptide competition binding assay, B*18:01; details: read-out: IC50 nM, target assay B*18:01
[11] = read-out: A*02:01 binding (IC50 nM) WT
[12] = read-out: IC50 nM, target assay A*02:01
[13] = unmodified (WT) insulin peptide, competition binding assay, a dash indicates IC50 >40,000 nM, read-out: A*02:01 binding (IC50 nM) WT
[14] = read-out: IC50 nM, target assay A*03:01
[15] = post-translationally modified insulin peptide, competition binding assay, a dash indicates IC50 >40,000 nM, read-out: A*02:01 binding (IC50 nM) Modified
[16] = read-out: A*02:01 binding (IC50 nM) Modified

IC50 [1]: 1250 nM
Compound: CC(C)C[C@H](NC(=O)[C@H](CCC(N)=O)NC(=O)[C@H](CC(N)=O)NC(=O)[C@H](Cc1ccccc1)NC(=O)[C@H](Cc1ccc(O)cc1)NC(=O)[C@H](CCCNC(=N)N)NC(=O)[C@@H]1CCCN1C(=O)[C@@H](N)Cc1c[nH]cn1)C(=O)N[C@@H](CO)C(=O)N[C@H](C(=O)O)[C@@H](C)O

IC50 [2]: 5250 nM
IC50 [3, 11]: 13400 nM
Compound: CC(C)C[C@H](NC(=O)[C@H](Cc1ccc(O)cc1)NC(=O)[C@@H](N)CC(C)C)C(=O)N[C@H](C(=O)N[C@@H](CS)C(=O)NCC(=O)N[C@@H](CCC(=O)O)C(=O)N[C@@H](CCCNC(=N)N)C(=O)NCC(=O)N[C@@H](Cc1ccccc1)C(=O)O)C(C)C [reference compound]

IC50 [2]: 15100 nM
IC50 [4]: > 40000 nM
Compound: ALWGPDPAAAF

IC50 [1]: 18200 nM
Compound: APVIKARMM

IC50 [1]: 3860 nM
Compound: IPSDLERRIL

IC50 [1]: 610 nM
IC50 [8]: 1160 nM
IC50 [9]: 12300 nM
Compound: LPLLALLAL [LPLLALLAL]

IC50 [6]: 27200 nM
IC50 [4]: > 40000 nM
IC50 [3, 11]: 23200 nM
IC50 [7, 14]: 27400 nM
Compound: LVCGERGFFY

IC50 [6]: 18300 nM
Compound: RFKMFPEVK

IC50 [2]: 10200 nM
IC50 [3, 12]: 145 nM
Compound: RLLPLLALL [reference compound]

IC50 [1]: 11 nM
Compound: SASVQRADTSL

IC50 [3, 12]: > 40000 nM
IC50 [7, 14]: > 40000 nM
Compound: SLQPLALEG [reference compound]

IC50 [3, 12]: 1150 nM
Compound: SMCRFSPLTL [reference compound]

IC50 [3, 12]: 631 nM
Compound: SMPQGTFPV [reference compound]

IC50 [3, 12]: 9230 nM
Compound: STVASWLGPV [reference compound]

IC50 [3, 12]: 1760 nM
Compound: SVASLLPHV [reference compound]

IC50 [3, 12]: 4690 nM
Compound: TIADFWQMV [reference compound]

IC50 [3, 13]: > 40000 nM
Compound: TPKTRREAE

IC50 [3, 13]: > 40000 nM
Compound: TPKTRREAED [TPKTRREAED]

IC50 [3, 13]: > 40000 nM
Compound: TRREAEDLQ

IC50 [3, 13]: > 40000 nM
Compound: TRREAEDLQV

IC50 [9]: > 40000 nM
Compound: TSEHSHFSL

IC50 [3, 12]: 7700 nM
Compound: TVASRLGPV [reference compound]

IC50 [3, 13]: > 40000 nM
Compound: VCGERGFFY

IC50 [3, 15]: > 40000 nM
Compound: VCGERGYFY

IC50 [3, 15]: > 40000 nM
Compound: VCGERGYFYT

IC50 [3, 15]: > 40000 nM
Compound: VDEHLCGSH

IC50 [3, 15]: > 40000 nM
Compound: VDEHLCGSHL

IC50 [3, 11]: 14300 nM
Compound: VEALYLVCG

IC50 [3, 11]: 8870 nM
Compound: VEALYLVCGE

IC50 [3, 12]: 2120 nM
Compound: VIVMLTPLV [reference compound]

IC50 [3, 12]: 149 nM
Compound: VLFGLGFAI [reference compound]

IC50 [3, 12]: 287 nM
Compound: VLHELFGMDI [reference compound]

IC50 [3, 12]: 17200 nM
Compound: VLVEGSTRI [reference compound]

IC50 [3, 13]: > 40000 nM
Compound: VNQHLCGSH

IC50 [3, 11]: 6640 nM
Compound: VNQHLCGSHL

IC50 [3, 12]: 3.2 nM
Compound: WLLPLWAALPL [reference compound]

IC50 [3, 12]: 9510 nM
Compound: YIPSCTVVGM [reference compound]

IC50 [3, 11]: 1400 nM
Compound: YLVCGERGFF

IC50 [3, 16]: 10800 nM
Compound: YLVCGERGY

IC50 [3, 13]: > 40000 nM
Compound: YTPKTRREAE

Further lines, the compound ahead of its results:

Compound: ALWMRLLPL [reference compound]
IC50 [5]: 0.107 µM
IC50 [3, 12]: 218 nM

Compound: ALWMRLLPLL
IC50 [2]: 6180 nM
IC50 [5]: 0.033 µM
IC50 [3, 12]: 190 nM

Compound: ALYLVCGER
IC50 [6]: 28300 nM
IC50 [3]: 1790 nM
IC50 [7]: 2790 nM

Compound: ERGFFYTPK [reference compound]
IC50 [3, 13]: > 40000 nM
IC50 [7, 14]: > 40000 nM

Compound: FYTPKTRRE [reference compound]
IC50 [5]: 13 µM
IC50 [3, 13]: > 40000 nM

Compound: GERGFFYT
IC50 [5]: 1.38 µM
IC50 [4]: > 40000 nM

Compound: GSHLVEALY [reference compound]
IC50 [4]: 30300 nM
IC50 [3, 11]: 3960 nM

Compound: LWMRLLPLL [reference compound]
IC50 [2]: 545 nM
IC50 [3, 11]: 266 nM

Compound: MFPEVKEKG
IC50 [6]: > 40000 nM

Compound: PLALEGSLQK
IC50 [7]: > 40000 nM

Compound: PLLALLALWG
IC50 [7, 14]: > 40000 nM

Compound: STVASRLGPV [reference compound]
IC50 [3, 12]: 25100 nM

Compound: TMHSLTIQM [reference compound]
IC50 [3, 12]: 104 nM

Compound: VAANIVLTV [reference compound]
IC50 [3]: 320 nM

Compound: VCGERGFFYT
IC50 [10]: 626 nM
IC50 [5]: > 40 µM
IC50 [4]: > 40000 nM
IC50 [3, 12]: > 40000 nM
IC50 [3, 13]: > 40000 nM

Compound: VLNSLASLL [reference compound]
IC50 [3, 12]: 4970 nM

Compound: VLNSVASLL [reference compound]
IC50 [3, 12]: 1140 nM

Compound: VMNILLQYV [reference compound]
IC50 [3, 12]: 2020 nM

Compound: VMNILLQYVV [reference compound]
IC50 [3, 12]: 2310 nM

Compound: VVTGVLVYL [reference compound]
IC50 [3, 12]: 9 nM

Compound: WGPDPAAA [reference compound]
IC50 [3, 12]: > 40000 nM

Compound: WLLPLWAAL [WLLPLWAAL, reference compound]
IC50 [3, 12]: 4.2 nM

Compound: WMRLLPLLA
IC50 [3]: 1530 nM

Compound: WMRLLPLLAL [WMRLLPLLAL, reference compound]
IC50 [1]: 2360 nM
IC50 [3]: 654 nM

Compound: YLLLRVLNI [reference compound]
IC50 [3, 12]: 57 nM

Compound: YLVCGERGF
IC50 ([3]; unmodified (wild type) insulin-derived peptide, radiolabeled ligand competition, purified MHC, two-day incubation, three or more independent experiments, read-out: A*02:01 binding, WT): 6740 nM

Compound: YLVCGERGYF
IC50 [3, 16]: 2010 nM

Compound: YTPKTRREA
IC50 [3, 13]: > 40000 nM
